Experimental data from publication PMC6207370 (Xenobiotica; the fate of foreign compounds in biological …, 2017).
Like-named read-outs stand apart in the source and are kept apart here.

How the values were obtained:
[1] = Incubations with human hepatic S9; conditions: for CLint scaled at 1 μM: both; for Fm,AO Method A (fraction metabolized by AO): method A (eq. 4); for Fm,AO Method B (fraction metabolized by AO): method B (eq. 5), values > 1 assumed equal to 1
[2] = Incubations with guinea pig hepatic S9; conditions: for Fm,AO Method A (fraction metabolized by AO) / Fm,AO Method B (fraction metabolized by AO): guinea pig hepatic S9; for Fm,AO Method A (fraction metabolized by AO): method A (eq. 4); for Fm,AO Method B (fraction metabolized by AO): method B (eq. 5), values > 1 assumed equal to 1
[3] = Incubations with rhesus monkey hepatic S9; conditions: for Fm,AO Method A (fraction metabolized by AO) / Fm,AO Method B (fraction metabolized by AO): rhesus monkey hepatic S9; for Fm,AO Method A (fraction metabolized by AO): method A (eq. 4); for Fm,AO Method B (fraction metabolized by AO): method B (eq. 5), values > 1 assumed equal to 1
[4] = Incubations with mouse hepatic S9; conditions: for CLint scaled at 1 μM: male, CD-1, mouse, Table 1, triplicate, 2–3 experiments; for Fm,AO Method A (fraction metabolized by AO) / Fm,AO Method B (fraction metabolized by AO): mouse hepatic S9; for Fm,AO Method A (fraction metabolized by AO): method A (eq. 4); for Fm,AO Method B (fraction metabolized by AO): method B (eq. 5), values > 1 assumed equal to 1
[5] = Incubations with cynomolgus monkey hepatic S9; conditions: for Fm,AO Method A (fraction metabolized by AO) / Fm,AO Method B (fraction metabolized by AO): cynomolgus monkey hepatic S9; for Fm,AO Method A (fraction metabolized by AO): method A (eq. 4); for Fm,AO Method B (fraction metabolized by AO): method B (eq. 5), values > 1 assumed equal to 1
[6] = Incubations with rat hepatic S9; conditions: for CLint scaled at 1 μM: male, Sprague-Dawley, Table 1, triplicate, 2–3 experiments; for CLHEP (hepatic clearance): well-stirred model from S9 CLint (+NADPH), uncorrected for fraction unbound
[7] = format: in vitro ADME
[8] = Incubations with minipig hepatic S9; conditions: for CLint scaled at 1 μM: male, Gottingen, Table 1, triplicate, 2–3 experiments; for Fm,AO Method A (fraction metabolized by AO): method A (eq. 4); for Fm,AO Method B (fraction metabolized by AO): method B (eq. 5), values > 1 assumed equal to 1
Allometric scaling = assay: Allometric scaling; set-up: species or system human

CCN(C(C)=O)c1cccc(-c2ccnc3c(C#N)cnn23)c1 [Zaleplon, zaleplon]
CLint scaled at 1 μM ([1]; human, s9, pH 7.4, CLint (intrinsic clearance) in hepatic S9, human hepatic S9, in the presence of NADPH, Table 1, triplicate, 2–3 experiments): 5.8 ± 1.02 mL/min/kg
CLint scaled at 1 μM ([1]; human, s9, pH 7.4, CLint −NADPH, human hepatic S9 without NADPH): 3.96 ± 1.35 mL/min/kg
Fm,AO Method A (fraction metabolized by AO) ([1]; human hepatic S9): 1
Fm,AO Method B (fraction metabolized by AO) ([1]; human hepatic S9): 0.71
Fm,AO (fraction metabolized by AO) ([1]; human hepatic S9, methods A and B taken together (data from Table 3)): ≥ 0.71
Fm,AO Method A (fraction metabolized by AO) [2]: 1
Fm,AO Method B (fraction metabolized by AO) [2]: 0.50
Fm,AO Method A (fraction metabolized by AO) [3]: 0.42
Fm,AO Method B (fraction metabolized by AO) [3]: 0.65
CLint scaled at 1 μM ([4]; s9, pH 7.4, CLint (intrinsic clearance) in hepatic S9, mouse hepatic S9, in the presence of NADPH): 24.4 ± 5.28 mL/min/kg
Fm,AO Method A (fraction metabolized by AO) [4]: 0.22
Fm,AO Method B (fraction metabolized by AO) [4]: 0
Fm,AO Method A (fraction metabolized by AO) [5]: 1
Fm,AO Method B (fraction metabolized by AO) [5]: 0.70
CLint scaled at 1 μM ([6]; rat, s9, pH 7.4, CLint (intrinsic clearance) in hepatic S9, rat hepatic S9, in the presence of NADPH): 15.6 ± 3.05 mL/min/kg
CLHEP (hepatic clearance) ([6]; rat): 12.7 ± 2.10 mL/min/kg
Fm,AO, across species ([7]; cynomolgus monkey, rhesus monkey, and guinea pig S9): 0.42–0.70
Fm,AO, across species ([7]; mouse and minipig S9): ≤ 0.22
CLint scaled at 1 μM ([8]; minipig, s9, pH 7.4, CLint (intrinsic clearance) in hepatic S9, minipig hepatic S9, in the presence of NADPH): 5.55 ± 1.34 mL/min/kg
Fm,AO Method A (fraction metabolized by AO) ([8]; minipig hepatic S9): 0.17
Fm,AO Method B (fraction metabolized by AO) ([8]; minipig hepatic S9): 0
Fm,AO (fraction metabolized by AO) ([8]; minipig hepatic S9, methods A and B taken together): ≤ 0.17

Cn1cc(-c2ccc3nnc(Sc4ccc5ncccc5c4)n3n2)cn1 [SGX523]
fold-error of human S9 CLint predicted by SSS (Allometric scaling; SSS from cynomolgus monkey): outside of 3-fold-error
fold-error of human S9 CLint predicted by multispecies allometry (MA) (Allometric scaling; minipig/rhesus/guinea pig combination, CLpred/CLobs): 3.0
CLint scaled at 1 μM ([1]; human, hepatic S9, pH 7.4, CLint (intrinsic clearance) in hepatic S9, human hepatic S9, in the presence of NADPH, Table 1, triplicate, 2–3 experiments): 7.1 ± 2.28 mL/min/kg
CLint scaled at 1 μM ([1]; human, hepatic S9, pH 7.4, CLint −NADPH, human hepatic S9 without NADPH): 4.51 ± 0.31 mL/min/kg
Fm,AO Method A (fraction metabolized by AO) ([1]; human hepatic S9): 0.36
Fm,AO Method B (fraction metabolized by AO) ([1]; human hepatic S9): 0.61
E (estimated hepatic extraction ratio) ([1]; human, E = CLHEP/QH from hepatic S9 (+NADPH)): 0.25
Fm,AO Method A (fraction metabolized by AO) [2]: 0.23
Fm,AO Method B (fraction metabolized by AO) [2]: 0.03
E (estimated hepatic extraction ratio) ([2]; guinea pig, E = CLHEP/QH from hepatic S9 (+NADPH)): 0.41
Fm,AO Method A (fraction metabolized by AO) [3]: 0.34
Fm,AO Method B (fraction metabolized by AO) [3]: 0.14
E (estimated hepatic extraction ratio) ([3]; rhesus monkey, E = CLHEP/QH from hepatic S9 (+NADPH)): 0.40
CLint scaled at 1 μM ([4]; hepatic S9, pH 7.4, CLint (intrinsic clearance) in hepatic S9, mouse hepatic S9, in the presence of NADPH): 39.4 ± 7.19 mL/min/kg
Fm,AO Method A (fraction metabolized by AO) [4]: 0.33
Fm,AO Method B (fraction metabolized by AO) [4]: 0.22
E (estimated hepatic extraction ratio) ([4]; mouse, E = CLHEP/QH from hepatic S9 (+NADPH)): 0.30
Fm,AO Method A (fraction metabolized by AO) [5]: 0.58
Fm,AO Method B (fraction metabolized by AO) [5]: 0.68
E (estimated hepatic extraction ratio) ([5]; cynomolgus monkey, E = CLHEP/QH from hepatic S9 (+NADPH)): 0.50
CLint scaled at 1 μM ([6]; rat, hepatic S9, pH 7.4, CLint (intrinsic clearance) in hepatic S9, rat hepatic S9, in the presence of NADPH): 35.3 ± 6.39 mL/min/kg
Fm,AO Method A (fraction metabolized by AO) ([6]; rat hepatic S9, method A (eq. 4)): 0.42
Fm,AO Method B (fraction metabolized by AO) ([6]; rat hepatic S9, method B (eq. 5), values > 1 assumed equal to 1): 0.28
E (estimated hepatic extraction ratio) ([6]; rat, E = CLHEP/QH from hepatic S9 (+NADPH)): 0.33
CLHEP (hepatic clearance) ([6]; rat): 23.3 ± 2.85 mL/min/kg
Fm,AO, across species ([7]; all species): 0.03 – 0.68
E (estimated hepatic extraction ratio), across species ([7]; all species (human, mouse, rat, guinea pig, cynomolgus, rhesus, minipig) hepatic S9): 0.25 – 0.50
CLint scaled at 1 μM ([8]; minipig, hepatic S9, pH 7.4, CLint (intrinsic clearance) in hepatic S9, minipig hepatic S9, in the presence of NADPH): 25.4 ± 1.46 mL/min/kg
Fm,AO Method A (fraction metabolized by AO) ([8]; minipig hepatic S9): 0.18
Fm,AO Method B (fraction metabolized by AO) ([8]; minipig hepatic S9): 0.12
E (estimated hepatic extraction ratio) ([8]; minipig, E = CLHEP/QH from hepatic S9 (+NADPH)): 0.48
